Drawing on publication PMC2247270, “Inhibition of vincristine binding to plasma membrane vesicles from daunorubicin-resistant Ehrlich ascites cells by multidrug resistance modulators” (British Journal of Cancer, 1989), this text covers IC50 for 1 compound.

By IC50 is commonly meant the concentration at which inhibition is half-maximal. A higher IC50 goes with weaker potency in that assay.

This experiment concerns the target T1, P-glycoprotein.
T1 construct: plasma membrane vesicles from EHR2/DNR+ Ehrlich ascites tumour cells
Nature of the experiment: inhibition of 3H-vincristine binding to plasma membrane vesicles, rapid filtration. It counts as biochemical.

`CN1CCN(CCCN2c3ccccc3Sc3ccc(C(F)(F)F)cc32)CC1` [TFP, trifluoperazine] had an IC50 of 23.2 µM.
